Data: patent US6534539B2, “Pharmaceutical composition and method for treatment of dyspepsia” (Hoffman-La Roche Inc., priority 2000, dated 2003)

Key:
Format in all cases: in vivo, human
[1] = tested on: normal volunteers, clinical model of dyspepsia (gastric distension); assay: Pressure-volume relationships during gastric distensions and duodenal infusion of fat emulsion (gastric barostat); conditions: p <0.05
Description: (§1) The reduction of dyspeptic symptoms by lipase inhibitors, particularly orlistat, was shown in human clinical studies that measured functional dyspepsia. Specifically, we measured the reduction of dyspeptic symptoms after administration of orlistat to normal volunteers (healthy subjects without a history of gastrointestinal disease (8 female and 7 male), aged 24-38 years; normal body weight (BMI (kg/m^2): females: 21.9±0.4, males: 23.4±0.4) during infusion of a fat emulsion into the duodenum in a clinical model of idopathic dyspepsia (gastric distension). BMI means body mass index.
(§2) Fat emulsions (Table 1) were infused intraduodenally via a single-lumen, naso-duodenal polyvinyl tube as described previously (Feinle, AJP2000), while the stomach was distended. Gastrointestinal sensations were assessed by a visual analog questionnaire. […]
(§3) Studies were performed in a double-blind, placebo-controlled, cross-over fashion in randomised order at least one week apart. […] At first, the minimal distending pressure (MDP) was determined by increasing intragastric pressure in steps of 1 mmHg/min. Pressure was then fixed at MDP and fasting tone recorded until variations in gastric volume were no longer observed. […] Two isobaric distensions were performed, 15 min apart from each other, by increasing intrabag pressure in steps of 1 mmHg/min, while corresponding volumes were monitored. […]

[2] = tested on: normal volunteers, clinical model of dyspepsia (gastric distension); assay: Gastrointestinal sensations (visual analogue scales) during gastric distensions and duodenal infusion of fat emulsion
Description: as §1, §2, §3

[3] = tested on: normal volunteers, clinical model of dyspepsia (gastric distension); assay: Changes in gastric tone (gastric baseline volume at MDP) during duodenal infusions; conditions: orlistat added to oil emulsion infused intraduodenally; p <0.05
Description: as §1
Fat emulsions (Table 1) were infused intraduodenally via a single-lumen, naso-duodenal polyvinyl tube as described previously (Feinle, AJP2000), while the stomach was distended. Gastrointestinal sensations were assessed by a visual analog questionnaire.
as §3

## CCCCCCCCCCC[C@@H](C[C@@H]1OC(=O)[C@H]1CCCCCC)OC(=O)[C@H](CC(C)C)NC=O [orlistat]
[1]
  Maximally tolerated pressure during gastric distension: significantly increased
[2]; increasing intragastric pressure during duodenal fat infusion
  Effects of LCTs on scores for fullness, bloating, nausea, pressure and hunger: significantly diminished
[2]; orlistat added to fat emulsion infused into the duodenum, gastric distension by inflatable balloon
  Intensity of stomach fullness and sensitivity, nausea and bloating: reduced
[3]
  Gastric baseline volume change during infusions: completely abolished
